31 compounds from ChEMBL document CHEMBL3400130, “Identification of apoptosis signal-regulating kinase 1 (ASK1) inhibitors among the derivatives of benzothiazol-2-yl-3-hydroxy-5-phenyl-1,5-dihydro-pyrrol-2-one” (Bioorg Med Chem, 2015) can be followed below.

Assay [1] deals with Fibroblast growth factor receptor 1 (Homo sapiens) (UniProt P11362). Nature of the assay: Inhibition of FGFR1 (unknown origin) assessed as residual enzyme activity at 10 uM using IGF-IRtide (12 to 527) substrate.
Assay [2] concerns the target Casein kinase II (Homo sapiens) (UniProt P67870+P68400+P19784). As to the kind of experiment: Inhibition of CK2 (unknown origin) assessed as residual enzyme activity at 10 uM using RRRDDDSDDD substrate peptide. It is filed as protein-complex assay.
Assay [3] deals with T1, Mitogen-activated protein kinase kinase kinase 5 (Homo sapiens) (UniProt Q99683).
T1 sequence (whole entry): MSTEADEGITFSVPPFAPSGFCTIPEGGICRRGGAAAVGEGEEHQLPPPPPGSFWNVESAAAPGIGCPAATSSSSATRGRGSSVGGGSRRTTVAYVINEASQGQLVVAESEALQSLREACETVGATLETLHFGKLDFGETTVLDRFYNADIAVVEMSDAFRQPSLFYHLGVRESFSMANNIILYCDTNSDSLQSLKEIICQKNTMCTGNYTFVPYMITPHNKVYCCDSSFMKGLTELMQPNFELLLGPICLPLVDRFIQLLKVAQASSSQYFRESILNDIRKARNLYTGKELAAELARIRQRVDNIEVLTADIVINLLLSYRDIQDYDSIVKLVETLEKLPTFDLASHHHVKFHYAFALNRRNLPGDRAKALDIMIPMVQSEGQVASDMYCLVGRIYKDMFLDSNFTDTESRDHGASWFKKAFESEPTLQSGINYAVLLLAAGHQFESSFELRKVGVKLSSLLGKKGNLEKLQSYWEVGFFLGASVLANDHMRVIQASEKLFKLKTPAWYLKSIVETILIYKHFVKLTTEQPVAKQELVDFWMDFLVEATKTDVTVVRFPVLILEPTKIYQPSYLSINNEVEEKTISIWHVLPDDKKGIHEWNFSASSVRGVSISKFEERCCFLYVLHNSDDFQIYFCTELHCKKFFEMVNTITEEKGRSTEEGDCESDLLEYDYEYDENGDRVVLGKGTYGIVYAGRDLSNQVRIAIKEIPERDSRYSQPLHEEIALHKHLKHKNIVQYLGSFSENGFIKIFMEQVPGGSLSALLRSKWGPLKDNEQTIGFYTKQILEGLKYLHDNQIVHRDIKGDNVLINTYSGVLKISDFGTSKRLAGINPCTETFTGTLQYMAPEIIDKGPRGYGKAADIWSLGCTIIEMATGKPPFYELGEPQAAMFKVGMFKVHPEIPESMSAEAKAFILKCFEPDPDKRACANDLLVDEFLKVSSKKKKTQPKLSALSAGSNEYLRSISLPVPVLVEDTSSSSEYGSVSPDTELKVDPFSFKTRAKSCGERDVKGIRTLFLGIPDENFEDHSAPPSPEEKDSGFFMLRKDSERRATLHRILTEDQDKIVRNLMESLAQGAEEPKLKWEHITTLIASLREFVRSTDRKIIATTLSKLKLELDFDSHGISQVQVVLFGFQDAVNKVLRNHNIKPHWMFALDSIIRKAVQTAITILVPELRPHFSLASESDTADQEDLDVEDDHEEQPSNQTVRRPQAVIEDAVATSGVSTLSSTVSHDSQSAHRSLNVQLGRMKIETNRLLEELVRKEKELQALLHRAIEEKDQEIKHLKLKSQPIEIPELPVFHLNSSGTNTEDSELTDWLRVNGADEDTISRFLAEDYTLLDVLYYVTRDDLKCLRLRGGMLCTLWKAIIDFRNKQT
Nature of the assay: Inhibition of recombinant ASK1 catalytic subunit (unknown origin) assessed as residual enzyme activity at 10 uM using MBP substrate and gamma-labeled 32P ATP incubated for 20 mins by liquid scintillation counting method.

Assay [4] addresses T2, Mitogen-activated protein kinase kinase kinase 5 (Homo sapiens, UniProt Q99683).
T2 sequence (Q99683 whole entry): T1 sequence (whole entry)
Nature of the assay: Inhibition of recombinant ASK1 catalytic subunit (unknown origin) using MBP substrate and gamma-labeled 32P ATP incubated for 20 mins by liquid scintillation counting method.

Assay [5] deals with T3, Aurora kinase A (Homo sapiens) (UniProt O14965).
T3 sequence (whole entry): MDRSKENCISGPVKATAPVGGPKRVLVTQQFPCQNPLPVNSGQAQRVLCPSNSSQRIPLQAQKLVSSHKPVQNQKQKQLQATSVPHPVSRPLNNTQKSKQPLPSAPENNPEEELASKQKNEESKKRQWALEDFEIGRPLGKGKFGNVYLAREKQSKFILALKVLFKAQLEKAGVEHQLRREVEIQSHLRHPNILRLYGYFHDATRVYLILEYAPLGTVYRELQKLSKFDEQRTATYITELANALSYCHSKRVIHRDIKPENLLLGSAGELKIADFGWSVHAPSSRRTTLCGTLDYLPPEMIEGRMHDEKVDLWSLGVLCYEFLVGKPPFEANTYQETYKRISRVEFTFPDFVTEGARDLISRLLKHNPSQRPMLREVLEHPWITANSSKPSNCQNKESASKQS
Nature of the assay: Inhibition of Aurora A (unknown origin) assessed as residual enzyme activity at 10 uM using kemptide substrate.

Assay [6] concerns the target Angiopoietin-1 receptor (Homo sapiens) (UniProt Q02763). As to the kind of experiment: Inhibition of Tie2 (unknown origin) assessed as residual enzyme activity at 10 uM using TK Substrate 2 (poly Glu-Tyr) substrate.
Assay [7] deals with Mitogen-activated protein kinase 10 (Homo sapiens) (UniProt P53779). Nature of the assay: Inhibition of JNK3 (unknown origin) assessed as residual enzyme activity at 10 uM using JNK3tide substrate.
Sequence of Mitogen-activated protein kinase 10 (Homo sapiens) (P53779 whole entry): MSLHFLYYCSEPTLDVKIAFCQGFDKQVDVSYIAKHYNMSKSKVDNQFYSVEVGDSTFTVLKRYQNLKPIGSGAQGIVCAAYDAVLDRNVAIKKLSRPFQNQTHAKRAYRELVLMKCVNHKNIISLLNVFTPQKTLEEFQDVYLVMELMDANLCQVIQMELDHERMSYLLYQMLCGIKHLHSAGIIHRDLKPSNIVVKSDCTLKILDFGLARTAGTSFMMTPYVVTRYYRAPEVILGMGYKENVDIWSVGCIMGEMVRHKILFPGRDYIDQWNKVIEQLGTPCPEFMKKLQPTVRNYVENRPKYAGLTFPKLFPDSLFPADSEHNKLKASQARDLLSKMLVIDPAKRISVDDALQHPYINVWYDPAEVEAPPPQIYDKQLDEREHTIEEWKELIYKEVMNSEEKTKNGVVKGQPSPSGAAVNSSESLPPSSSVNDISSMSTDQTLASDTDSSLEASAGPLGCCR

Sequence of Fibroblast growth factor receptor 1 (Homo sapiens) (P11362 22-822 limits assumed): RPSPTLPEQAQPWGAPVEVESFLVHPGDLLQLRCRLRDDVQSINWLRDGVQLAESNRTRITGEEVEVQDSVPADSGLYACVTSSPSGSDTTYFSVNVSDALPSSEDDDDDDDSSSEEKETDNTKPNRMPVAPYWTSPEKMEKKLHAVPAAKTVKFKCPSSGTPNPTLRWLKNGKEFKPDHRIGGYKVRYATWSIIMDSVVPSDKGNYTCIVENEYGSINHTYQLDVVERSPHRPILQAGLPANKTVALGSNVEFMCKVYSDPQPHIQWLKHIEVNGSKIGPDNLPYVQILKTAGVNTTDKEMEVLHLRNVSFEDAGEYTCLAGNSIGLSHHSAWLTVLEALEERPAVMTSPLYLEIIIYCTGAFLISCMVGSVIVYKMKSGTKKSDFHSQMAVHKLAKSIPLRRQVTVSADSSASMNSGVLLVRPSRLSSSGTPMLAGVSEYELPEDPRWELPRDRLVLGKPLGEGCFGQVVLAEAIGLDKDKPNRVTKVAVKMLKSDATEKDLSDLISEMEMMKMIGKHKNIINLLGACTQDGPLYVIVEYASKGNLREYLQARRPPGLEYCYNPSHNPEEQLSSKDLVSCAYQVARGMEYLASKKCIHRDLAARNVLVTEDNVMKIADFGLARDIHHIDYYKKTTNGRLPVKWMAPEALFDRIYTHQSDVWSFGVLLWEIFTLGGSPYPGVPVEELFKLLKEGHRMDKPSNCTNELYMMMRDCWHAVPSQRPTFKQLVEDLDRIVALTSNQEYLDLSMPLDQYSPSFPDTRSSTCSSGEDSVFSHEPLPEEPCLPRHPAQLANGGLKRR
Sequence of Angiopoietin-1 receptor (Homo sapiens) (Q02763 whole entry): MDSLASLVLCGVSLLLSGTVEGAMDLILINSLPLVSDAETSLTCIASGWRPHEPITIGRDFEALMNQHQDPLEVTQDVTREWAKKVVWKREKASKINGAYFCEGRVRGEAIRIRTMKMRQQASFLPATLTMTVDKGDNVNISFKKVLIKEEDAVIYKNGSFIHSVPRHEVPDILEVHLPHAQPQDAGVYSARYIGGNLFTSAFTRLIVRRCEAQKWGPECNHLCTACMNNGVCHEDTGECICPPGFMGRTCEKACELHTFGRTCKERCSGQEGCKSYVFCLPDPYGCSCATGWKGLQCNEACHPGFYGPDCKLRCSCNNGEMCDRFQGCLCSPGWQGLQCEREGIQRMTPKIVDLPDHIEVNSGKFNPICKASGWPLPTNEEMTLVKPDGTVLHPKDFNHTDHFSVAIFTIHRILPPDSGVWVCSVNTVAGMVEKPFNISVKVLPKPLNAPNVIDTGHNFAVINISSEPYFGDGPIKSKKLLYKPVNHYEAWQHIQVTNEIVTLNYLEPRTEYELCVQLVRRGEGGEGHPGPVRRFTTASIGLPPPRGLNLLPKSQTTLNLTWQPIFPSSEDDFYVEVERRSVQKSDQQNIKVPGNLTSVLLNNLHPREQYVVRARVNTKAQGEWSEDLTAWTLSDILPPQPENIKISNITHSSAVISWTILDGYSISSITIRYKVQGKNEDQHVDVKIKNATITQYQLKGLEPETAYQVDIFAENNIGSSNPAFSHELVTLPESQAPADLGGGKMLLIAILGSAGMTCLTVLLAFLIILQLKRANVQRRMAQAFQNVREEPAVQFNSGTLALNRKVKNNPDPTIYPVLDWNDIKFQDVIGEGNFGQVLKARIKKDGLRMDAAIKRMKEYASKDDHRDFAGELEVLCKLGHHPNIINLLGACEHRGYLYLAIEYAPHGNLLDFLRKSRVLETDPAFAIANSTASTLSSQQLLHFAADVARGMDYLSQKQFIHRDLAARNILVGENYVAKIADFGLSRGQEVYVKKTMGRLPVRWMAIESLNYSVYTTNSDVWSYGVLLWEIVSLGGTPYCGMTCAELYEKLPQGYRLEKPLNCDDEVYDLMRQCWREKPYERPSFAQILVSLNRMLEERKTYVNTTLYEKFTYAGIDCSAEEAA

The IC50 is the point on the concentration scale where inhibition reaches its midpoint. Take `CCOc1ccc2nc(N3C(=O)C(O)=C(C(=O)c4ccccc4)C3c3ccc(Cl)cc3)sc2c1` (configuration not stated): the Activity in assay [1] turned out to be 65.7%; in assay [2] it was 79.3%; in assay [3], 16.2%; in assay [5] it was 36.5%; in assay [6], 62.8%; in assay [7], 100%. The IC50 in assay [4] amounted to 4.2 µM.
For `O=C(C1=C(O)C(=O)N(c2nc3ccc(F)cc3s2)C1c1cccc(Cl)c1)c1ccco1` (configuration not stated), in assay [4], the half-inhibitory concentration (IC50) was determined as 28.2 µM.
Take `CCOc1ccc(C2C(C(=O)c3cccs3)=C(O)C(=O)N2c2nc3ccc(C)cc3s2)cc1` (configuration not stated): the IC50 in assay [4] came to 9.1 µM.
On the same count and under the same terms, under `Cc1ccc(C(=O)C2=C(O)C(=O)N(c3nc4ccc(F)cc4s3)C2c2ccc(C(C)(C)C)cc2)cc1` (configuration not stated) stands 7.6 µM.
Same read-out and setting: the value for `Cc1ccc(C(=O)C2=C(O)C(=O)N(c3nc4ccc(C)cc4s3)C2c2ccc(C(C)(C)C)cc2)cc1` (configuration not stated) was 4.4 µM; that for `CCOc1ccc2nc(N3C(=O)C(O)=C(C(=O)c4ccccc4)C3c3ccc(C(C)(C)C)cc3)sc2c1` (configuration not stated) was 5 µM.
In the case of `Cc1ccc(C(=O)C2=C(O)C(=O)N(c3nc4ccc(F)cc4s3)C2c2ccc(C(C)(C)C)cc2)o1` (configuration not stated), the Activity is 92.7% in assay [1]; 68.3% in assay [2]; 32.6% in assay [3]; 100% in assay [5]; 100% in assay [6]; 100% in assay [7]. In assay [4], the IC50 was 1.55 µM.
Regarding `Cc1cc(C)c2nc(N3C(=O)C(O)=C(C(=O)c4ccco4)C3c3ccccc3)sc2c1` (configuration not stated), the IC50 in assay [4] amounted to 63 µM.
As for `CCCOc1ccc(C2C(C(=O)c3ccc4c(c3)OCCO4)=C(O)C(=O)N2c2nc3ccc(C)cc3s2)cc1` (configuration not stated), the Activity was 22.6% in assay [1]; 81.8% in assay [2]; 43% in assay [3]; 49.5% in assay [5]; 99.2% in assay [6]; 80% in assay [7]. The IC50 in assay [4] was determined as 2 µM.
On to `O=C(C1=C(O)C(=O)N(c2nc3ccc(F)cc3s2)C1c1cccc(Br)c1)c1ccco1` (configuration not stated), for which the IC50 in assay [4] was 29.5 µM.
Same read-out and setting: the value for `Cc1ccc2nc(N3C(=O)C(O)=C(C(=O)c4ccc(F)cc4)C3c3ccc(Cl)cc3)sc2c1` (configuration not stated) was 2.9 µM; that for `CCCOc1ccc(C2C(C(=O)c3ccc4c(c3)OCCO4)=C(O)C(=O)N2c2nc3ccc(Cl)cc3s2)cc1` (configuration not stated) was 5 µM; that for `COc1ccc(C(=O)C2=C(O)C(=O)N(c3nc4ccc(F)cc4s3)C2c2cccc(F)c2)cc1` (configuration not stated) was 17 µM.
As to `O=C(C1=C(O)C(=O)N(c2nc3ccc(F)cc3s2)C1c1cccc(F)c1)c1ccco1` (configuration not stated), the IC50 in assay [4] was 42.6 µM.
In the case of `O=C(C1=C(O)C(=O)N(c2nc3ccc(F)cc3s2)C1c1cccc(Cl)c1)c1cccs1` (configuration not stated), the Activity in assay [1] turned out to be 74.4%; in assay [2] it was 71.5%; in assay [3], 27.6%; in assay [5], 28.1%; in assay [6], 63.5%; in assay [7] it was 89.9%. In assay [4], the IC50 worked out at 4.5 µM.
In the case of `COc1ccccc1C1C(C(=O)c2ccc(C)o2)=C(O)C(=O)N1c1nc2c(C)cc(C)cc2s1` (configuration not stated), the IC50 in assay [4] was 35.5 µM.
Consider `CC(C)CCOc1cccc(C2C(C(=O)c3ccc4c(c3)CC(C)O4)=C(O)C(=O)N2c2nc3ccc(F)cc3s2)c1` (configuration not stated), for which the Activity stood at 100% in assay [1]; 83.4% in assay [2]; 14% in assay [3]; 44.7% in assay [5]; 100% in assay [6]; 100% in assay [7]. Also, in assay [4], the IC50 was determined as 0.52 µM.
With `Cc1cc(C)c2nc(N3C(=O)C(O)=C(C(=O)c4ccc(Cl)cc4)C3c3ccc(C(C)C)cc3)sc2c1` (configuration not stated), the IC50 in assay [4] is 6.3 µM.
Consider `CCCCCOc1ccc(C2C(C(=O)c3ccc4c(c3)OCCO4)=C(O)C(=O)N2c2nc3ccc(C)cc3s2)cc1` (configuration not stated), for which the Activity in assay [1] amounted to 25.5%; in assay [2], 90%; in assay [3], 13.2%; in assay [5], 28.1%; in assay [6], 59.9%; in assay [7] it was 92.5%. Moreover, the half-maximal inhibitory concentration (IC50) in assay [4] is 5.2 µM.
With `COc1ccc(C2C(C(=O)c3ccc(C)o3)=C(O)C(=O)N2c2nc3ccc(C)cc3s2)cc1OC` (configuration not stated), the half-maximal inhibitory concentration (IC50) in assay [4] came out at 38 µM.
For `CCCCOc1ccc(C2C(C(=O)c3ccc4c(c3)OCCO4)=C(O)C(=O)N2c2nc3ccc(Cl)cc3s2)cc1OCC` (configuration not stated), the Activity in assay [1] came to 18%; in assay [2], 89.7%; in assay [3], 19.7%; in assay [5], 28.8%; in assay [6] it was 78.8%; in assay [7], 100%. For the same compound, the half-maximal inhibitory concentration (IC50) in assay [4] is 3.6 µM.
`Cc1cc(C)c2nc(N3C(=O)C(O)=C(C(=O)c4ccc(C)o4)C3c3ccc(C(C)C)cc3)sc2c1` (configuration not stated): the IC50 in assay [4] came out at 2 µM.
`CC(C)(C)c1ccc(C2C(C(=O)c3ccc4c(c3)OCCO4)=C(O)C(=O)N2c2nc3ccc(Cl)cc3s2)cc1` (configuration not stated): the Activity in assay [1] worked out at 46.8%; in assay [2] it was 83.6%; in assay [3], 12.3%; in assay [5] it was 52.9%; in assay [6], 92.5%; in assay [7], 100%. In addition, the half-inhibitory concentration (IC50) in assay [4] is 2.5 µM.
Consider `Cc1ccc2nc(N3C(=O)C(O)=C(C(=O)c4ccco4)C3c3ccc(Cl)cc3)sc2c1` (configuration not stated), for which the IC50 in assay [4] was 30.2 µM.
Take `Cc1ccc2nc(N3C(=O)C(O)=C(C(=O)c4ccco4)C3c3ccc(Br)cc3)sc2c1` (configuration not stated): the IC50 in assay [4] is 28.2 µM.
Regarding `CCCCCOc1ccc(C2C(C(=O)c3ccc4c(c3)CC(C)O4)=C(O)C(=O)N2c2nc3ccc(F)cc3s2)cc1` (configuration not stated), the Activity stood at 26.9% in assay [1]; 92.6% in assay [2]; 18.1% in assay [3]; 28.4% in assay [5]; 68.4% in assay [6]; 100% in assay [7]. For the same compound, the IC50 in assay [4] was 0.75 µM.
With `O=C(C1=C(O)C(=O)N(c2nc3ccc(F)cc3s2)C1c1ccc(Br)cc1)c1ccco1` (configuration not stated), the IC50 in assay [4] stood at 28.2 µM.
On to `CCCCOc1ccc(C2C(C(=O)c3ccc4c(c3)OCCO4)=C(O)C(=O)N2c2nc3ccc(C)cc3s2)cc1` (configuration not stated), for which the Activity came out at 58.1% in assay [1]; 85.6% in assay [2]; 19.8% in assay [3]; 20.5% in assay [5]; 94.2% in assay [6]; 100% in assay [7]. In addition, the IC50 in assay [4] amounted to 4.6 µM.
With `CCOc1ccc2nc(N3C(=O)C(O)=C(C(=O)c4cccs4)C3c3ccc(C)cc3)sc2c1` (configuration not stated), the Activity was 88.7% in assay [1]; 79.9% in assay [2]; 27% in assay [3]; 45.4% in assay [5]; 83.2% in assay [6]; 100% in assay [7]. In addition, in assay [4], the IC50 turned out to be 4.4 µM.
On to `CCOc1ccc(C(=O)C2=C(O)C(=O)N(c3nc4ccc(C)cc4s3)C2c2ccc(F)cc2)cc1` (configuration not stated), for which the IC50 in assay [4] came to 5.5 µM.
Same read-out and setting: under `Cc1ccc2nc(N3C(=O)C(O)=C(C(=O)c4ccco4)C3c3cccc(Br)c3)sc2c1` (configuration not stated) stands 31 µM.
